From the supplement of paper PMC11061612 come the findings set out here.

Test [1] deals with NCI-H64 (Small Cell Lung Carcinoma). Nature of the test: Bliss excess, mean over the matrix (fraction); higher = more synergy. The essentials:
(§1)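 Cell lines in DMEM/F12 or RPMI with 10% FBS were plated in 1536-well plates, held 24 hours at 37°C, 5% CO2, then given two-drug dose matrices for 72 hours (DMSO typically 0.2%). Viability was read by CellTiter-Glo 2.0 luminescence and scaled as inhibition from 0 (vehicle wells) to 1 (blank wells). Combination Emax is the second-highest inhibition in the matrix; Bliss excess is observed combination effect minus expected EA + EB − EA·EB, EA and EB being single-agent effects.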

In test [2] the test system is TT (Thyroid Gland Carcinoma). The description is as above. The essentials: as §1
In test [3] the test system is NY (Osteosarcoma). The description is as above. The essentials: as §1
The subject of test [4] is NCI-H1693 (Lung Adenocarcinoma). Described as above. The essentials:
as §1

In test [5] the test system is TT2609-C02 (Thyroid Gland Carcinoma). The description is as above. The essentials: as §1
Test [6] concerns A3-KAW (B-Cell Non-Hodgkin's Lymphoma). Described as above. In a few lines: as §1
In test [7] the test system is ECC10 (Gastric Carcinoma). Described as above. The essentials:
as §1

For test [8], the system named is CCK-81 (Colorectal Carcinoma). Described as above. The essentials: as §1
Test [9] has as its system COR-L311 (Small Cell Lung Carcinoma). The description is as above. In a few lines:
as §1

Test [10] deals with CAS-1 (Glioblastoma). The test is described as above. In a few lines: as §1
Test [11] has as its system NCI-H2066 (Squamous Cell Lung Carcinoma). Described as above. In a few lines:
as §1

In test [12] the test system is COLO-320-HSR (Colorectal Carcinoma). Described as above. The essentials: as §1
The test system of test [13] is VCaP (Prostate Carcinoma). The test is described as above. In a few lines:
as §1

In test [14] the test system is PANC-10-05 (Pancreatic Carcinoma). The test is described as above. In a few lines:
as §1

For test [15], the system named is Hs-445 (Non-Cancerous). Described as above. In a few lines: as §1
For test [16], the system named is A549 (Lung Adenocarcinoma). The test is described as above. In a few lines: as §1
Test [17] deals with NCI-H1666 (Lung Adenocarcinoma). Described as above. The essentials:
as §1

For test [18], the system named is NCI-H1693 (Lung Adenocarcinoma). Nature of the test: combination Emax (second highest fraction inhibited in the dose matrix, 72 h); higher = more inhibition; extreme values may be limits of the assay. In a few lines: as §1
Test [19] relates to NCI-H2141 (Small Cell Lung Carcinoma). Described as above. In a few lines: as §1
Test [20] deals with SISO (Cervical Carcinoma). The test is described as above. In a few lines: as §1
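Throughout, for Bliss excess, mean over the matrix: after 72 h of two-drug dosing.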

As for `NC1(C(=O)N[C@@H](CCO)c2ccc(Cl)cc2)CCN(c2ncnc3[nH]ccc23)CC1` [Capivasertib] + CCN(CCO)CCCOc1ccc2c(Nc3cc(CC(=O)Nc4cccc(F)c4)[nH]n3)ncnc2c1 [AZD2811] (first compound max 10 µM, 7x7, partner max 1 µM), the Bliss excess is 0.0427 in test [1]; 0.002 in test [2]; -0.0531 in [3]; -0.0446 in test [4]; -0.0075 in test [5]; -0.0369 in test [6]. Further, the Bliss excess in [7] is -0.039; in test [8], 0.0065; in [9], -0.0461; in test [10], -0.0688; in test [11], -0.0641; in test [12] it was -0.0018. Also, the Bliss excess was 0.0328 in test [13]; -0.0943 in test [14]; -0.0895 in [15]; -0.0365 in test [16]; -0.0482 in test [17]. Besides, the “combination Emax” value in [18] is 0.36; in test [19], 0.345; in test [20] it was 0.477.
On to `NC1(C(=O)N[C@@H](CCO)c2ccc(Cl)cc2)CCN(c2ncnc3[nH]ccc23)CC1` [Capivasertib] + COc1nnc2ccc(N3CCC(c4ccc(OCCN5CCN(C)C(=O)[C@H]5C)cc4)CC3)nn12 [AZD5153] (first compound max 10 µM, 7x7, partner max 1 µM), for which the Bliss excess is -0.0011 in test [1]; 0.0241 in test [2]; -0.0649 in test [3]; -0.0062 in test [4]; -0.0366 in test [5]; -0.0363 in test [6]. The Bliss excess was 0.0708 in [7]; -0.0176 in test [8]; -0.0089 in [9]; 0.0268 in [10]; 0.0135 in test [11]; -0.0289 in test [12]. Moreover, the Bliss excess in [13] is 0.0181; in test [14], -0.0114; in [15] it was -0.027; in test [16] it was -0.0345; in [17], -0.0136. For the same compound, the figures for the “combination Emax” value in test [18], in test [19] and in [20] were 0.554, 0.377 and 0.421, respectively.
Regarding `NC1(C(=O)N[C@@H](CCO)c2ccc(Cl)cc2)CCN(c2ncnc3[nH]ccc23)CC1` [Capivasertib] + C[C@@H]1COCCN1C2=NC(=NC(=C2)C3(CC3)[S@](=N)(=O)C)C4=C5C=CNC5=NC=C4 [AZD6738] (first compound max 10 µM, 7x7, partner max 10 µM), the Bliss excess in [1] is -0.0591; in test [2], -0.0378; in test [3], -0.0287; in [4] it was -0.0526; in test [5] it was -0.0158; in test [6], -0.0165. In addition, the Bliss excess in test [7] is -0.0163; in test [8], -0.139; in [9], -0.0213; in test [10] it was -0.0706; in test [11], -0.0782; in test [12], -0.0883. Moreover, the Bliss excess in test [13] is -0.0179; in test [14], -0.0946; in test [15], -0.0531; in test [16], -0.0414; in test [17], -0.0332. Moreover, the “combination Emax” value is 0.44 in test [18], 0.557 in [19] and 0.586 in [20].
With `NC1(C(=O)N[C@@H](CCO)c2ccc(Cl)cc2)CCN(c2ncnc3[nH]ccc23)CC1` [Capivasertib] + Cn1cnc2c(F)c(Nc3ccc(Br)cc3Cl)c(C(=O)NOCCO)cc21 [Selumetinib] (first compound max 10 µM, 7x7, partner max 10 µM), the Bliss excess in test [1] was -0.0027; in test [2], -0.0098; in test [3], -0.0161; in test [4], -0.0375; in [5] it was -0.0213; in test [6], 0.0622. Moreover, the Bliss excess in [7] was 0.0563; in test [8], 0.0753; in test [9], -0.0422; in [10] it was -0.0798; in test [11], -0.0867; in test [12], 0.0222. Besides, the Bliss excess in test [13] is -0.0249; in test [14], 0.0147; in test [15] it was 0.0479; in [16] it was 0.0052; in [17] it was -0.0165. In addition, the “combination Emax” value in [18] stood at 0.44; in test [19], 0.214; in test [20], 0.269.
Consider `Cc1nc(Nc2ncc(C(=O)Nc3c(C)cccc3Cl)s2)cc(N2CCN(CCO)CC2)n1` [Dasatinib] + CC(=O)Nc1cccc(-n2c(=O)n(C3CC3)c(=O)c3c(Nc4ccc(I)cc4F)n(C)c(=O)c(C)c32)c1 [Trametinib] (first compound max 2 µM, 7x7, partner max 1 µM), for which the Bliss excess in test [1] is -0.0498; in test [2], -0.0272; in [3], 0.034; in test [4], 0.0432; in [5] it was 0.0898; in [6] it was 0.0863. The Bliss excess in test [7] is -0.0334; in test [8] it was -0.057; in test [9], -0.0295; in test [10], -0.107; in test [11] it was -0.0033; in test [12] it was -0.0492. Besides, the Bliss excess in test [13] is -0.0396; in [14], 0.0735; in test [15], -0.0873; in test [16], 0.0224; in test [17], -0.0644. Moreover, the “combination Emax” value in test [18] worked out at 0.699; in [19] it was 0.129; in test [20] it was 0.157.
`COc1cccc2c1C(=O)c1c(O)c3c(c(O)c1C2=O)C[C@@](O)(C(=O)CO)C[C@@H]3O[C@H]1C[C@H](N)[C@H](O)[C@H](C)O1` [Doxorubicin] + Cc1cc2ncnn2cc1Nc1ncc2c(n1)n(C1CCOCC1)c(=O)n2C [AZD7648] (first compound max 1 µM, 7x7, partner max 10 µM): the Bliss excess stood at 0.0063 in [1]; 0.01 in test [2]; 0.0578 in [3]; 0.036 in [4]; 0.0486 in test [5]; 0.0751 in test [6]. The Bliss excess is 0.0602 in test [7]; 0.0481 in [8]; 0.0893 in [9]; 0.105 in [10]; -0.0396 in test [11]; 0.0307 in [12]. Besides, the Bliss excess was 0.0275 in test [13]; -0.0557 in [14]; 0.102 in [15]; 0.0564 in test [16]; 0.0129 in test [17]. Also, the figures for the “combination Emax” value in test [18], in test [19] and in test [20] were 0.405, 0.475 and 0.909, respectively.
`COc1cc2ncnc(Nc3ccc(F)c(Cl)c3)c2cc1OCCCN1CCOCC1` [Gefitinib] + CC(C)n1c(=O)n(C)c2cnc3cc(F)c(-c4ccc(OCCCN5CCCCC5)nc4)cc3c21 [AZD1390] (first compound max 10 µM, 7x7, partner max 0.3 µM): the Bliss excess in [1] was -0.022; in [2], -0.0526; in test [3] it was -0.0355; in [4] it was -0.04; in [5], -0.0716; in test [6], -0.0098. Further, the Bliss excess in test [7] was -0.0231; in [8] it was -0.072; in test [9], -0.0545; in test [10] it was -0.0603; in [11], 0.0099; in test [12], -0.0398. Moreover, the Bliss excess in test [13] was -0.0429; in test [14], -0.0835; in [15], -0.0356; in test [16] it was -0.0544; in test [17], -0.0064. Further, the entries for the “combination Emax” value in test [18], in test [19] and in test [20] were 0.419, 0.0717 and 0.0311, respectively.
